Here are results for 27 compounds from patent publication US20120301551A1, “COMPOUNDS AND COMPOSITIONS FOR TREATING NEURONAL DEATH OR NEUROLOGICAL DYSFUNCTION” (Neurotech Pharmaceuticals Co., Ltd., priority 2005, published 2012).

Like-named read-outs stand apart in the source and are kept apart here.

The subject of one test is cerebral cortical cell. The test is described as follows: anti-oxidant effect: neuron protecting effect against Fe+2 (50 uM FeCl2). The class given is cell-based. Conditions: cerebral cortical cell treated by 50 uM FeCl2. How it is done: After cerebral cortical cell was treated by 50 uM FeCl2 to induce oxidative stress, the anti-oxidant effects of many compounds were evaluated. Results were shown as IC50 (uM) (Item A of Table 3 below).
(§1) In the Table 3, A, B and C mean neuron protecting effect against Fe^+2, suppressing effect on production of NO and suppressing effect on production of beta-amyloid, respectively. The term “ND” means “Not determined.”

Test [1] deals with BV-2 cell line (production of NO). The test is described as follows: anti-inflammatory effect: suppression of LPS-induced production of NO. The following applies: BV-2 cell line treated by LPS; for IC50: read-out: IC50 (uM) B: suppressing effect on production of NO. Format: cell-based. The procedure: After BV-2 cell line was treated by LPS to induce production of NO, the anti-inflammatory effects of many compounds were evaluated. Results were shown as IC50 (uM) (Item B of Table 3 below).
as §1

On to `Cc1ccc(CCNc2ccc(O)c(C(=O)O)c2)cc1` [Compound 11], for which the figures for the IC50 (with cerebral cortical cell (Neuron); in test [1] (Mus musculus)) were 0.24 µM and 23.9 µM, respectively.

As to `COc1ccc(CCNc2ccc(O)c(C(=O)O)c2)cc1` [Compound 05], the half-inhibitory concentration (IC50) turned out to be 0.11 µM in the test on cerebral cortical cell (Neuron) and 60.3 µM in test [1] (Mus musculus).

With `O=C(O)c1cc(NCCc2cc(F)cc(F)c2)ccc1O` [Compound 22], the IC50 stood at 0.25 µM with cerebral cortical cell (Neuron) and 135 µM in test [1] (Mus musculus).

For `COc1ccccc1CCNc1ccc(O)c(C(=O)O)c1` [Compound 13], the IC50 in the test on cerebral cortical cell (Neuron) is 0.27 µM; in test [1] (Mus musculus), 94 µM.

Consider `O=C(O)c1cc(NCCc2cccc(Cl)c2)ccc1O` [Compound 08], for which the IC50 is 0.23 µM in the test on cerebral cortical cell (Neuron) and 76.5 µM in test [1] (Mus musculus).

`O=C(O)c1cc(NCCc2cc(F)ccc2C(F)(F)F)ccc1O` [Compound 37]: the IC50 with cerebral cortical cell (Neuron) was 0.27 µM; in test [1] (Mus musculus), over 100 µM.

Turning to `O=C(O)c1cc(NCCc2ccccc2C(F)(F)F)ccc1O` [Compound 03], the 50% inhibitory concentration (IC50) with cerebral cortical cell (Neuron) amounted to 0.1 µM; in test [1] (Mus musculus) it was 33 µM.

On to `O=C(O)c1cc(NCCc2ccccc2)ccc1O` [Compound 02], for which the results for the IC50 (in the test with cerebral cortical cell (Neuron); in test [1] (Mus musculus)) were 1.04 µM and over 100 µM, respectively.

In the case of `O=C(O)c1cc(NCCCc2ccccc2)ccc1O` [Compound 32], the 50% inhibitory concentration (IC50) with cerebral cortical cell (Neuron) came out at 0.29 µM; in test [1] (Mus musculus) it was 85.4 µM.

On to `O=C(O)c1cc(NCCCc2ccc(F)cc2)ccc1O` [Compound 28], for which the results for the IC50 (with cerebral cortical cell (Neuron); in test [1] (Mus musculus)) were 0.12 µM and 20.3 µM, respectively.

Regarding `CCOc1ccc(CCNc2ccc(O)c(C(=O)O)c2)cc1` [Compound 29], the figures for the concentration for half-maximal inhibition (IC50) (with cerebral cortical cell (Neuron); in test [1] (Mus musculus)) were 0.18 µM and 42.2 µM, respectively.

With `O=C(O)c1cc(NCCc2cc(F)ccc2F)ccc1O` [Compound 06], the IC50 with cerebral cortical cell (Neuron) stood at 0.27 µM; in test [1] (Mus musculus), 82.2 µM.

In the case of `O=C(O)c1cc(NCCc2cccc(F)c2)ccc1O` [Compound 19], the IC50 with cerebral cortical cell (Neuron) came out at 0.26 µM; in test [1] (Mus musculus) it was 82.6 µM.

`O=C(O)c1cc(NCCc2c(F)cccc2F)ccc1O` [Compound 12]: the IC50 was found to be 0.36 µM with cerebral cortical cell (Neuron) and 62.7 µM in test [1] (Mus musculus).

Consider `O=C(O)c1cc(NCCc2ccc(F)cc2)ccc1O` [Compound 39], for which the IC50 with cerebral cortical cell (Neuron) was found to be 0.31 µM. In addition, the “IC50 (uM) B: suppressing effect on production of NO” value (from here on “IC50 (uM) B … of NO”) in test [1] is “No”.

In the case of `O=C(O)c1cc(NCCc2cccc(Br)c2)ccc1O` [Compound 10], it took 0.23 µM to reach half-maximal inhibition in the test with cerebral cortical cell (Neuron) (IC50). In test [1], the “IC50 (uM) B … of NO” value is “No”.

Consider `O=C(O)c1cc(NCCc2ccc(F)cc2C(F)(F)F)ccc1O` [Compound 31], for which the IC50 was determined as 0.25 µM with cerebral cortical cell (Neuron) and 4.08 µM in test [1] (Mus musculus).

`O=C(O)c1cc(NCCc2ccc(Cl)cc2)ccc1O` [Compound 14]: the IC50 in the test on cerebral cortical cell (Neuron) is 0.11 µM; in test [1] (Mus musculus) it was over 100 µM.

Regarding `O=C(O)c1cc(NCCc2cccc(C(F)(F)F)c2)ccc1O` [Compound 04], the IC50 with cerebral cortical cell (Neuron) was 0.08 µM; in test [1] (Mus musculus), 26.1 µM.

In the test on cerebral cortical cell (Neuron), `COc1cccc(CCNc2ccc(O)c(C(=O)O)c2)c1` [Compound 15] registered a half-inhibitory concentration (IC50) of 0.32 µM. The “IC50 (uM) B … of NO” value in test [1] was “No”.

On to `O=C(O)c1cc(NCCc2ccc(Cl)c(Cl)c2)ccc1O` [Compound 18], for which the 50% inhibitory concentration (IC50) with cerebral cortical cell (Neuron) is 0.1 µM; in test [1] (Mus musculus) it was 63.2 µM.

Take `O=C(O)c1cc(NCCc2ccccc2F)ccc1O` [Compound 23]: the IC50 is 0.11 µM in the test with cerebral cortical cell (Neuron) and 34.9 µM in test [1] (Mus musculus).

For the compound `O=C(O)c1cc(NCCc2ccccc2[N+](=O)[O-])ccc1O` [Compound 20], the 50% inhibitory concentration (IC50) came to 0.4 µM in the test with cerebral cortical cell (Neuron) and 12.5 µM in test [1] (Mus musculus).

As for `O=C(O)c1cc(NCCc2ccc(O)cc2)ccc1O` [Compound 47], the concentration for half-maximal inhibition (IC50) in the test on cerebral cortical cell is 0.32 µM; in test [1], 11.5 µM.

`O=C(O)c1cc(NCCc2ccc(C(F)(F)F)c(F)c2)ccc1O` [Compound 45]: the IC50 in the test on cerebral cortical cell (Neuron) turned out to be 0.1 µM; in test [1] (Mus musculus), 20.7 µM.

For the compound `O=C(O)c1cc(NCCc2ccccc2Br)ccc1O` [Compound 09], the IC50 in the test with cerebral cortical cell (Neuron) is 0.14 µM; in test [1] (Mus musculus) it was 78.8 µM.

`O=C(O)c1cc(NCCCc2ccc(Cl)cc2Cl)ccc1O` [Compound 44]: the IC50 with cerebral cortical cell (Neuron) turned out to be 0.12 µM; in test [1] (Mus musculus), 51 µM.

One may read the IC50 as the concentration at which inhibition is half-maximal.
